The target of this experiment is Protein-arginine deiminase type-4 (Homo sapiens) (UniProt Q9UM07). As to the kind of experiment: PubChem AID 651867. Particulars: recombinant PAD4, BAEE citrulline colorimetric, time-dependent inactivation; at 10 µM; active compounds read high.
Sequence of Protein-arginine deiminase type-4 (Homo sapiens) (Q9UM07 whole entry, looked up): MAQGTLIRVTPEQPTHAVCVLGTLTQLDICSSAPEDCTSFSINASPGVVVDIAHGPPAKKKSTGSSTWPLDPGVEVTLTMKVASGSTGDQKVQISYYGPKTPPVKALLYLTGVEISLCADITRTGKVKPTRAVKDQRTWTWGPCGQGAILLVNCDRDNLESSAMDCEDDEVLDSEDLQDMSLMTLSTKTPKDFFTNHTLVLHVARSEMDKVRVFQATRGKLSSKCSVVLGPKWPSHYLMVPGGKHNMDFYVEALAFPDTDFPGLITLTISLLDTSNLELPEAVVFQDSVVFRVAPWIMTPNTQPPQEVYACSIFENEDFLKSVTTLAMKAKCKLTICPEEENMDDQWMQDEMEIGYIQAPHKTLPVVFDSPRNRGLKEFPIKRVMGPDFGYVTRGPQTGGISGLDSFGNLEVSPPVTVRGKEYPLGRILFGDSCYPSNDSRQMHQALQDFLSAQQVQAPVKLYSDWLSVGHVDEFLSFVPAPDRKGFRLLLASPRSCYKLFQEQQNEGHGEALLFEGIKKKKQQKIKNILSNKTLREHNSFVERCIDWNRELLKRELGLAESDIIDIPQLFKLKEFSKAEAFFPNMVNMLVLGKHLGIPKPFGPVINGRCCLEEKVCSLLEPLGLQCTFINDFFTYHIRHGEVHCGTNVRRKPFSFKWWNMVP

`NC1=CC(=O)c2ccc(-c3cccc(C(=O)O)n3)nc2C1=O`: the inactivation efficiency (kinact/KI) was 88.3 M⁻¹ s⁻¹.

The kinact/KI is the maximal inactivation rate divided by the concentration that gives half of it.

These data come from PubChem BioAssay AID651867 (The Scripps Research Institute Molecular Screening Center, 2012).
